Measured values published in patent US7419778B2, “Method for high throughput cell-based assays using versatile living microarrays” (PameGene B.V., priority 2002, dated 2008).

System: E. coli XL2 Blue MRF′
Assay: Sensitivity of E. coli to kanamycin in agar plugs on flow-through (Pam) substrate, zone of clearing
Format: cell-based
Conditions: 12 hours at 37° C.
Method: […] The porous nature of the substrate draws the molten agar into the pores by capillary action. These treated substrates were then overlaid with 10^6 cfu/ml E. coli XL2 MRF′ cells containing plasmid pUC18 that had been grown in 2TY broth with 100 μg/ml ampicillin and placed on 2TY plates with the same concentration of ampicillin. Plates were then incubated for 12 hours at 37° C.

`NC[C@H]1O[C@H](O[C@H]2[C@H](O)[C@@H](O[C@H]3O[C@H](CO)[C@@H](O)[C@H](N)[C@H]3O)[C@H](N)C[C@@H]2N)[C@H](O)[C@@H](O)[C@@H]1O` [Kanamycin, kanamycin] was tested, and the “Zone of clearing (diameter mm)” value (10 ng kanamycin, N=12) was 0.4 mm, the “Zone of clearing (diameter mm)” value (100 ng kanamycin, N=16) was 2.1 mm and the “Zone of clearing (diameter mm)” value (1000 ng kanamycin, N=12) was 3.5 mm.
